In patent US20050033056A1, “Hydroxylated indole derivatives and uses thereof” (priority 2001, published 2005):

Target: CYP3A4 (Homo sapiens, UniProt P08684)
Experiment: CYP inhibition in HLM: R-warfarin 10-hydroxylation
Assay type: in vitro ADME
Design: tissue Gentest Corp. (Woburn, Mass.); host or cells: pooled human liver microsomes
Details: 10 or 50 μM
Experimental: The incubations were carried out in test tubes (12.0×75 mm). The incubation mixtures (250 μL) contained 0.5 mg of HLM protein, 50 (CYP1A2 and CYP2E1) or 25 (CYP2C9, CYP2C19, CYP2D6 and CYP3A4) pmol of recombinant human CYPs, Compound 1 (10 or 50 μM), probe substrate (R—, S-warfarin, chlorzoxazone, S-mephenyloin, or bufuralol) at different concentrations, and 0.5 mg of NADPH in 50 mM Tris buffer containing 15 mM MgCl2 (pH 7.4). Compound 1 was added to the reaction mixture 5 minutes prior to the addition of the probe substrate. […]
The quantification was based on the calibration curves, and the quality control (QC) samples were applied to ensure the quality of the experiments. […]
1. CYP1A2/2C9/3A4-mediated warfarin 6-, 7-, 8-, and 10-hydroxylation (Zhang et al., Drug Metab. Dispos. 23:1339-1346, 1995; Rettie et al., Chem. Res. Toxicol. 5:54-59, 1992; Brian et al., Biochemistry 29:11280-11292, 1990): Hewlett Packard 1100 HPLC system (Waldbronn, Germany) comprised a binary pump, an autosampler, a column compartment unit, a photodiode array detector (PDA), and a fluorescence detector. […] The warfarin metabolites, 6-, 8-, and 10-hydroxywarfarin, were monitored by UV at 313 nm, and 7-hydroxywarfarin by fluorescence at Ex320 nm/Em380 nm. […]

Sequence of CYP3A4 (P08684 whole entry): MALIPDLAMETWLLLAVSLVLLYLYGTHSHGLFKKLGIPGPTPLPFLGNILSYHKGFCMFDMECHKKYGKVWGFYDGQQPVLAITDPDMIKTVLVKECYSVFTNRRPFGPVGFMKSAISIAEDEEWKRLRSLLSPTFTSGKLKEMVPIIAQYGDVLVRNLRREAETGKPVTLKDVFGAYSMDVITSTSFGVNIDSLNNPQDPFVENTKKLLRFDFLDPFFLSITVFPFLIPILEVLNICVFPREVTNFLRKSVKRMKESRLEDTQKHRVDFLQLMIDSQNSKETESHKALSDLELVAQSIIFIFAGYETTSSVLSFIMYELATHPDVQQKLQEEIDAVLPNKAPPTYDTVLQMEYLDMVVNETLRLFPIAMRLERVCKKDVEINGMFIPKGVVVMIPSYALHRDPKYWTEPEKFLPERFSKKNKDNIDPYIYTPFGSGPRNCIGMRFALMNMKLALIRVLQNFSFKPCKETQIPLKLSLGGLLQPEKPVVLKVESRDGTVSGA

CNC(=O)Cc1ccc2ccn(C3CCN(CCc4ccccc4F)CC3)c2c1 [Compound 1, N-methyl-[1-[1-(2-fluorophenethyl)piperidine-4-yl]-1H-indol-6-yl] acetamide]
inhibitory effect on CYP3A4 activity (in words): no inhibitory effect
